molecular target: SIK2 (Homo sapiens, UniProt Q9H0K1); experiment: SIK2 Enzymatic Assay High Version 2 (High ATP); type: biochemical; conditions: not given
Procedure, shortened: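 At room temperature, enzyme (6 nM, 2× final) was preincubated with compound for 30 min, then 6 mM ATP and 400 μM HDAC5tide (both 2× final) were added for 2 h. ADP formed was measured by ADP-Glo Max (2 h reagent, 1 h detection) using luminescence.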

SIK2, sequence (Q9H0K1 whole entry, species assumed): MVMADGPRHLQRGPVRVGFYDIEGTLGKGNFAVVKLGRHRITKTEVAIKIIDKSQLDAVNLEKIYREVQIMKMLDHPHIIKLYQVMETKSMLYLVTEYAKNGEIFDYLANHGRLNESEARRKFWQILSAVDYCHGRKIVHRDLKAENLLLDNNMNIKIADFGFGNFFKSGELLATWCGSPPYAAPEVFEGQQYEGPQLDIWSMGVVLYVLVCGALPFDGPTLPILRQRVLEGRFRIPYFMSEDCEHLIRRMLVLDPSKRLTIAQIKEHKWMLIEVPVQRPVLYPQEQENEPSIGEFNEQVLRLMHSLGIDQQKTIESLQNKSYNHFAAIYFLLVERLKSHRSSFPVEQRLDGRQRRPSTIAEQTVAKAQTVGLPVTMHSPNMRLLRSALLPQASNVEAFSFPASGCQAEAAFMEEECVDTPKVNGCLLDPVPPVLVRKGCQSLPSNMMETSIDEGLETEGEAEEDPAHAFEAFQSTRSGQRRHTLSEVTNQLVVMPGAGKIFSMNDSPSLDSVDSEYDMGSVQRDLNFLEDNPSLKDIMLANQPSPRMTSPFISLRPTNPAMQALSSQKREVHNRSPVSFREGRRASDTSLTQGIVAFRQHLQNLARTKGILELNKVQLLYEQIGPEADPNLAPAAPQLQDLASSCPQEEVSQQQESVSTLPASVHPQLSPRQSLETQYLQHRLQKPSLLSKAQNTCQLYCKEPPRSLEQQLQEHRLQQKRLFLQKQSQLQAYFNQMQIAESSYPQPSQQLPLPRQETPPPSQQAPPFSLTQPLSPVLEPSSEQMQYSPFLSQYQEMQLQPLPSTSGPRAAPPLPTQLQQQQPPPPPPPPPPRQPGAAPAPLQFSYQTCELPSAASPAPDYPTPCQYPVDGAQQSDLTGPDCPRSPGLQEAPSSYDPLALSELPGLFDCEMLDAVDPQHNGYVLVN

Structure (SMILES) | IC50
CNC(=O)c1ccnc(Nc2cc3cc(-c4cc(C)ncc4O[C@H]4C[C@H]5COC[C@@H](C4)N5)ccn3n2)c1 [Example 172, 2-((5-(5-(((1R,5S,7s)-3-oxa-9-azabicyclo[3.3.1]nonan-7-yl)oxy)-2-methylpyridin-4-yl)pyrazolo[1,5-a]pyridin-2-yl)amino)-N-methylisonicotinamide] | 0.000876 µM
CC(=O)N1[C@@H]2COC[C@H]1C[C@@H](Oc1cnc(C)cc1-c1ccn3nc(Nc4ccc(=O)n(C)n4)cc3c1)C2 [Example 637, 6-((5-(5-(((1R,5S,7s)-9-acetyl-3-oxa-9-azabicyclo[3.3.1]nonan-7-yl)oxy)-2-methylpyridin-4-yl)pyrazolo[1,5-a]pyridin-2-yl)amino)-2-methylpyridazin-3(2H)-one] | 0.00642 µM
Cc1cc(-c2ccn3nc(Nc4ccccn4)cc3c2)c(OC[C@@H]2CNCCO2)cn1 [Example 130, 5-[2-methyl-5-[[(2S)-morpholin-2-yl]methoxy]-4-pyridyl]-N-(2-pyridyl)pyrazolo[1,5-a]pyridin-2-amine] | 0.00429 µM
COc1cc(Nc2cc3cc(-c4cc(C)ncc4O[C@H]4C[C@H]5COC[C@@H](C4)N5)ccn3n2)cc(OC)c1C(=O)NC(C)C [Example 340, N-isopropyl-2,6-dimethoxy-4-[[5-[2-methyl-5-[[(1S,5R)-3-oxa-9-azabicyclo[3.3.1]nonan-7-yl]oxy]-4-pyridyl]pyrazolo[1,5-a]pyridin-2-yl]amino]benzamide] | < 0.000847 µM
Cc1cnc(Nc2cc3cc(-c4cc(C)ncc4O[C@H]4C[C@H]5COC[C@@H](C4)N5)ccn3n2)nc1 [Example 391, 5-(5-(((1R,5S,7s)-3-oxa-9-azabicyclo[3.3.1]nonan-7-yl)oxy)-2-methylpyridin-4-yl)-N-(5-methylpyrimidin-2-yl)pyrazolo[1,5-a]pyridin-2-amine] | < 0.000847 µM
Cc1cc(Nc2cc3cc(-c4cc(C)ncc4O[C@H]4C[C@H]5COC[C@@H](C4)N5C)ccn3n2)ncn1 [Example 421, 5-[2-methyl-5-[[(1R,5S,7s)-9-methyl-3-oxa-9-azabicyclo[3.3.1]nonan-7-yl]oxy]-4-pyridyl]-N-(6-methylpyrimidin-4-yl)pyrazolo[1,5-a]pyridin-2-amine] | 0.0122 µM
Cc1cc(-c2ccn3nc(Nc4ncccn4)cc3c2)c(O[C@H]2C[C@H]3COC[C@@H](C2)N3)cn1 [Example 402, 5-[2-methyl-5-[[(1S,5R,7s)-3-oxa-9-azabicyclo[3.3.1]nonan-7-yl]oxy]-4-pyridyl]-N-pyrimidin-2-yl-pyrazolo[1,5-a]pyridin-2-amine] | 0.0984 µM
Cc1cc(-c2ccn3nc(Nc4ccn(C)n4)cc3c2)c(O[C@H]2C[C@H]3COC[C@@H](C2)N3)cn1 [Example 125, endo-5-(5-(((1R,5S,7s)-3-oxa-9-azabicyclo[3.3.1]nonan-7-yl)oxy)-2-methylpyridin-4-yl)-N-(1-methyl-1H-pyrazol-3-yl)pyrazolo[1,5-a]pyridin-2-amine] | < 0.000847 µM
[2H]C([2H])([2H])N1[C@@H]2COC[C@H]1C[C@@H](Oc1cnc(C)cc1-c1ccn3nc(NC(=O)C4CC4)cc3c1)C2 [Example 462, N-[5-[2-methyl-5-[[(1S,5R)-9-(trideuteriomethyl)-3-oxa-9-azabicyclo[3.3.1]nonan-7-yl]oxy]-4-pyridyl]pyrazolo[1,5-a]pyridin-2-yl]cyclopropanecarboxamide] | 0.00741 µM

same assay, conditions: enzyme 6 nM, 6 mM ATP and 400 μM HDAC5tide (each 2× final concentration); 30 minutes pre-incubation, 2 hours; ADP-Glo Max luminescence; read-out: SIK2 high ATP IC50 (μM) (Test Example 2)

Structure (SMILES) | IC50
Cc1cc(-c2ccn3nc(Nc4cc(C)nc(C)n4)cc3c2)c(OC[C@@]23CN[C@@H](CO2)C3)cn1 [Example 238, N-(2,6-dimethylpyrimidin-4-yl)-5-[2-methyl-5-[[(1R,4R)-5-oxa-2-azabicyclo[2.2.1]heptan-4-yl]methoxy]-4-pyridyl]pyrazolo[1,5-a]pyridin-2-amine] | 0.00226 µM
Cc1cc(-c2ccn3nc(Nc4ccc(C5CC5)nn4)cc3c2)c(OC[C@]23C[C@H](CO2)N(C)C3)cn1 [Example 235, N-(6-cyclopropylpyridazin-3-yl)-5-[2-methyl-5-[[(1R,4R)-2-methyl-5-oxa-2-azabicyclo[2.2.1]heptan-4-yl]methoxy]-4-pyridyl]pyrazolo[1,5-a]pyridin-2-amine] | 0.0199 µM
Cc1cc(-c2ccn3nc(Nc4cc(C)c(=O)[nH]n4)cc3c2)c(OCC(C)(C)O)cn1 [Example 208, 3-[[5-[5-(2-hydroxy-2-methyl-propoxy)-2-methyl-4-pyridyl]pyrazolo[1,5-a]pyridin-2-yl]amino]-5-methyl-1H-pyridazin-6-one] | 0.00856 µM

More lines, now with the values ahead:

IC50 | Structure (SMILES)
0.00278 µM | Cc1cc(-c2ccn3nc(Nc4cc(C)nc(C)n4)cc3c2)c(OC[C@@H]2COC[C@H](O)C2)cn1 (single isomer, unassigned) [Example 351, (3*R, 5*S)-5-[[4-[2-[(2,6-dimethylpyrimidin-4-yl)amino]pyrazolo[1,5-a]pyridin-5-yl]-6-methyl-3-pyridyl]oxymethyl]tetrahydropyran-3-ol]
0.00136 µM | CC(C)(C#N)COc1cnc(OCC(F)F)cc1-c1ccn2nc(Nc3cnccn3)cc2c1 [Example 689, 3-[[6-(2,2-difluoroethoxy)-4-[2-(pyrazin-2-ylamino)pyrazolo[1,5-a]pyridin-5-yl]-3-pyridyl]oxy]-2,2-dimethyl-propanenitrile]
< 0.000847 µM | CC#Cc1cc(-c2ccn3nc(NC(=O)C4CC4)cc3c2)c(OCC2(F)CNC2)cn1 [Example 434, N-[5-[5-[(3-fluoroazetidin-3-yl)methoxy]-2-prop-1-ynyl-4-pyridyl]pyrazolo[1,5-a]pyridin-2-yl]cyclopropanecarboxamide]
0.0129 µM | Cc1cc(-c2ccn3nc(NC(=O)C4CC4)cc3c2)c(OC[C@H](N)c2ccccc2)cn1 (single isomer, unassigned) [Example 465]
0.0129 µM | Cc1cc(-c2ccn3nc(Nc4cc(C)nc(C)n4)cc3c2)c(OC[C@H]2C[C@H](O)C2)cn1 [Example 538, (1r,3r)-3-(((4-(2-((2,6-dimethylpyrimidin-4-yl)amino)pyrazolo[1,5-a]pyridin-5-yl)-6-methylpyridin-3-yl)oxy)methyl)cyclobutan-1-ol]
0.00844 µM | Cc1cc(-c2ccn3nc(Nc4cc(C)nc(C)n4)cc3c2)c(OCC(C)(O)C(F)(F)F)cn1 (single isomer, unassigned) [Example 263, (*S)-3-[[4-[2-[(2,6-dimethylpyrimidin-4-yl)amino]pyrazolo[1,5-a]pyridin-5-yl]-6-methyl-3-pyridyl]oxy]-1,1,1-trifluoro-2-methyl-propan-2-ol]
0.0094 µM | Cc1cc(Nc2cc3cc(-c4cc(OC(F)F)ncc4OCC(C)(C)C#N)ccn3n2)nc(N2CCOCC2)n1 [Example 710, 3-[[6-(difluoromethoxy)-4-[2-[(6-methyl-2-morpholino-pyrimidin-4-yl)amino]pyrazolo[1,5-a]pyridin-5-yl]-3-pyridyl]oxy]-2,2-dimethyl-propanenitrile]
0.0055 µM | Cc1cc(-c2ccn3nc(Nc4cc(C)nc(C)n4)cc3c2)c(OC2CCS(=O)(=O)CC2)cn1 [Example 550, N-(2,6-dimethylpyrimidin-4-yl)-5-[5-(1,1-dioxothian-4-yl)oxy-2-methyl-4-pyridyl]pyrazolo[1,5-a]pyridin-2-amine]
0.0176 µM | Cc1cc(-c2ccn3nc(Nc4cnc(C(F)F)cn4)cc3c2)c(OC[C@H]2OCC[C@@H]2O)cn1 [Example 295, (2R,3S)-2-[[4-[2-[[5-(difluoromethyl)pyrazin-2-yl]amino]pyrazolo[1,5-a]pyridin-5-yl]-6-methyl-3-pyridyl]oxymethyl]tetrahydrofuran-3-ol]
0.0239 µM | Cc1cc(-c2ccn3nc(Nc4cc(C)nc(C)n4)cc3c2)c(OCC2(C)COC2)cn1 [Example 546, N-(2,6-dimethylpyrimidin-4-yl)-5-[2-methyl-5-[(3-methyloxetan-3-yl)methoxy]-4-pyridyl]pyrazolo[1,5-a]pyridin-2-amine]
0.202 µM | Cc1cc(-c2ccn3nc(NC(=O)C4CC4)cc3c2)c(OCC(C)(O)C2CC2)cn1 (single isomer, unassigned) [Example 603, (*S)—N-[5-[5-(2-cyclopropyl-2-hydroxy-propoxy)-2-methyl-4-pyridyl]pyrazolo[1,5-a]pyridin-2-yl]cyclopropanecarboxamide]
0.0111 µM | Cn1cnc(Nc2cc3cc(-c4cc(OC(F)F)ncc4OCC(C)(C)C#N)ccn3n2)n1 [Example 699, 3-[[6-(difluoromethoxy)-4-[2-[(1-methyl-1,2,4-triazol-3-yl)amino]pyrazolo[1,5-a]pyridin-5-yl]-3-pyridyl]oxy]-2,2-dimethyl-propanenitrile]
0.00215 µM | Cc1cc(Nc2cc3cc(-c4cc(OC(F)F)ncc4OCC(C)(N)C(F)(F)F)ccn3n2)nc(C)n1 (single isomer, unassigned) [Example 755, (*R)-5-[5-(2-amino-3,3,3-trifluoro-2-methyl-propoxy)-2-(difluoromethoxy)-4-pyridyl]-N-(2,6-dimethylpyrimidin-4-yl)pyrazolo[1,5-a]pyridin-2-amine]
0.00681 µM | Cc1cc(-c2ccn3nc(Nc4cc(C)nc(C)n4)cc3c2)c(O[C@H]2CCS(=O)(=O)N(C)C2)cn1 (single isomer, unassigned) [Example 355, (*S)—N-(2,6-dimethylpyrimidin-4-yl)-5-[2-methyl-5-(2-methyl-1,1-dioxo-thiazinan-4-yl)oxy-4-pyridyl]pyrazolo[1,5-a]pyridin-2-amine]
0.0313 µM | COc1cc(Nc2cc3cc(-c4cc(C)ncc4OCC(C)(C)O)ccn3n2)cc(OC)c1 [Example 646, 1-[[4-[2-(3,5-dimethoxyanilino)pyrazolo[1,5-a]pyridin-5-yl]-6-methyl-3-pyridyl]oxy]-2-methyl-propan-2-ol]
0.0312 µM | Cc1cc(Nc2cc3cc(-c4cc(OC(F)F)ncc4OCC(C)(C)C#N)ccn3n2)ncn1 [Example 685, 3-[[6-(difluoromethoxy)-4-[2-[(6-methylpyrimidin-4-yl)amino]pyrazolo[1,5-a]pyridin-5-yl]-3-pyridyl]oxy]-2,2-dimethyl-propanenitrile]

From patent US20240158392A1 (Janssen Biotech, Inc., priority 2021, published 2024)
